Laboratory results as given in US20240383852A1, “ANTI-VIRAL COMPOUNDS” (INFEX Therapeutics Limited, priority 2021, published 2024).
Counter-ions that a name gives are not always drawn. Like-named read-outs stand apart in the source and are kept apart here.

How the values were obtained:
[1] = tested on: human Hep G2 cells (ATCC HB-8065); assay: Cytotoxicity in Hep G2 cells (CellTiter-Glo); type: cell-based
SARS-CoV-2 PLpro = target: T1, SARS-CoV-2 PLpro (Severe acute respiratory syndrome coronavirus 2, UniProt P0DTD1); assay: biochemical
T1 construct: containing 60 nM papain-like protease

[2] = Hep G2 cells, 100 μM test article, 24-hour exposure
[3] = 60 nM papain-like protease, 50 μM Z-RLRGG-AMC, pH 7.5, 37° C., read-out: SARS-CoV-2 PLpro IC50

SMILES | % Cell Viability [1, 2] | IC50 (SARS-CoV-2 PLpro; [3]) | % Cell Viability ([1]; human, 24 h, 100 μM) | IC50 (SARS-CoV-2 PLpro)
COCCNC(=O)c1cc(-c2cccc([C@@H](C)NC(=O)c3cc(N4CCN(C)CC4)ccc3C)c2)cs1 [Example 100, N-(2-Methoxyethyl)-4-[3-[(1R)-1-[[2-methyl-5-(4-methylpiperazin-1-yl)benzoyl]amino]ethyl]phenyl]thiophene-2-carboxamide] | 65.9% | < 2 µM |  | 
Cc1ccc(N2CCN(C)CC2)cc1C(=O)N[C@H](C)c1cccc(-c2ccc(Cl)cc2)c1 [Example 55, N-[(1R)-1-[3-(4-Chlorophenyl)phenyl]ethyl]-2-methyl-5-(4-methylpiperazin-1-yl)benzamide] | 1.0% | < 2 µM |  | 
Cc1ccc(N2CCN(C)CC2)cc1C(=O)N[C@H](C)c1cccc(-c2ccc(C3CCNCC3)cc2)c1 [Example 77, 2-Methyl-5-(4-methylpiperazin-1-yl)-N-[(1R)-1-[3-[4-(4-piperidyl)phenyl]phenyl]ethyl]benzamide] | 1.0% | < 2 µM |  | 
Cc1ccc(N2CCN(C)CC2)cc1C(=O)N[C@H](C)c1cccc(N2CCN(CCC(=O)O)CC2)c1 [Example 166, 3-[4-[3-[(1R)-1-[[2-Methyl-5-(4-methylpiperazin-1-yl)benzoyl]amino]ethyl]phenyl]piper-azin-1-yl]propanoic acid] | 100.9% | < 10 µM |  | 
Cc1ccc(N2CCN(C)CC2)cc1C(=O)N[C@H](C)c1cccc(C(=O)NC[C@@H](O)CO)c1 [Example 308, N-[(1R)-1-[3-[[(2R)-2,3-Dihydroxypropyl]carbamoyl]phenyl]ethyl]-2-methyl-5-(4-methylpiperazin-1-yl)benzamide hydrochloride salt] | 126.8% | < 10 µM |  | 
Cc1ccc(C2CCNCC2)cc1C(=O)N[C@H](C)c1cccc2ccccc12 [Example 156, 2-Methyl-N-[(1R)-1-(1-napthyl)ethyl]-5-(4-piperidyl)benzamide] | 0.6% | < 2 µM |  | 
Cc1ccc(N2CCN(C)CC2)cc1C(=O)N[C@H](C)c1cccc(-c2ccccc2CO)c1 [Example 80, N-[(1R)-1-[3-[2-(Hydroxymethyl)phenyl]phenyl]ethyl]-2-methyl-5-(4-methylpiperazin-1-yl)benzamide] | 79.5% | < 2 µM |  | 
Cc1ccc(N2CCN(C)CC2)cc1C(=O)N[C@H](C)c1cc(O)cc(-c2cnn(C)c2)c1 [Example 275, N-[(1R)-1-[3-Hydroxy-5-(1-methylpyrazol-4-yl)phenyl]ethyl]-2-methyl-5-(4-methylpiperazin-1-yl)benzamide] | 80.7% | < 2 µM |  | 
Cc1ccc(N2CCN(C)CC2)cc1C(=O)N[C@H](C)c1cccc(-c2cccc(C(=O)NCCN)c2)c1 [Example 98, N-[(1R)-1-[3-[3-(2-Aminoethylcarbamoyl)phenyl]phenyl]eth-yl]-2-methyl-5-(4-methylpiperazin-1-yl)benzamide] | 98.5% | < 2 µM |  | 
COc1cc([C@@H](C)NC(=O)c2cc(N3CCN(C)CC3)ccc2C)ccc1OCc1ccccc1 [Example 184, N-[(1R)-1-(4-benzyloxy-3-methoxy-phenyl)ethyl]-2-methyl-5-(4-methylpiperazin-1-yl)benzamide] | 51.3% | < 2 µM |  | 
COc1c(-c2cnn(C)c2)cccc1[C@@H](C)NC(=O)c1cc(N2CCN(C)CC2)ccc1C [Example 226, N-[(1R)-1-[2-Methoxy-3-(1-methylpyrazol-4-yl)phenyl]ethyl]-2-methyl-5-(4-methylpiperazin-1-yl)benzamide] | 91.4% | < 10 µM |  | 
COCCNC(=O)c1cccc(-c2cccc([C@@H](C)NC(=O)c3cc(N4CCN(C)CC4)ccc3C)c2)c1 [Example 87, N-[(1R)-1-[3-[3-(2-Methoxyethylcarbamoyl)phenyl]phenyl]ethyl]-2-methyl-5-(4-methylpiperazin-1-yl)benzamide] | 74.6% | < 2 µM |  | 
Cc1ccc(N2CCN(CCO)CC2)cc1C(=O)N[C@H](C)c1cccc(-c2cnn(C)c2)c1 [Example 112, 5-[4-(2-Hydroxyethyl)piperazin-1-yl]-2-methyl-N-[(1R)-1-[3-(1-methylpyrazol-4-yl)phenyl]ethyl]benzamide] | 41.0% | < 2 µM |  | 
COc1cc(-c2cn(C)nc2C)cc([C@@H](C)NC(=O)c2cc(C3CCN(C)CC3)ccc2C)c1 [Example 301, N-[(1R)-1-[3-(1,3-Dimethylpyrazol-4-yl)-5-methoxy-phenyl]ethyl]-2-methyl-5-(1-methyl-4-piperidyl)benzamide] | 77.5% | < 2 µM |  | 
Cc1ccc(C2=CCNCC2)cc1C(=O)N[C@H](C)c1cccc2ccccc12 [Example 154, 2-Methyl-N-[(1R)-1-(1-naphthyl)ethyl]-5-(1,2,3,6-tetrahydropyridin-4-yl)benzamide] |  |  | 2.1% | < 2 µM
Cc1ccc(N2CCN(C)CC2)cc1C(=O)N[C@H](C)c1cccc(-c2cccc(C(=O)N(C)C)c2)c1 [Example 47, N-[(1R)-1-[3-[3-(Dimethylcarbamoyl)phenyl]phenyl]ethyl]-2-methyl-5-(4-methylpiperazin-1-yl)benzamide] | 54.0% | < 2 µM |  | 

SMILES | % Cell Viability [1, 2] | IC50 (SARS-CoV-2 PLpro; [3]) | % Cell Viability ([1]; human, 24 h, 100 μM) | IC50 (SARS-CoV-2 PLpro)
Cc1ccc(N2CCN(C)CC2)cc1C(=O)N[C@H](C)c1ccc(-c2ccc(CO)cc2)cc1 [Example 54, N-[(1R)-1-[4-[4-(Hydroxymethyl)phenyl]phenyl]ethyl]-2-methyl-5-(4-methylpiperazin-1-yl)benzamide] | 76.0% | < 10 µM |  | 
Cc1ccc(N2C[C@H]3C[C@@H]2CN3C)cc1C(=O)N[C@H](C)c1cccc(-c2cccc(C(C)(C)O)c2)c1 [Example 57, N-[(1R)-1-[3-[3-(1-Hydroxy-1-methyl-ethyl)phenyl]phenyl]ethyl]-2-methyl-5-[(1R,4R)-5-methyl-2,5-diazabicyclo[2.2.1]heptan-2-yl]benzamide] | 0.9% | < 2 µM |  | 
COc1ccc([C@@H](C)NC(=O)c2cc(N3C[C@H]4C[C@@H]3CN4C)ccc2C)cc1Br [Example 181, N-[(1R)-1-(3-Bromo-4-methoxy-phenyl)ethyl]-2-methyl-5-[(1R,4R)-5-methyl-2,5-diazabicyclo[2.2.1]heptan-2-yl]benzamide] | 18.9% | < 2 µM |  | 
Cc1nnc(-c2cccc([C@@H](C)NC(=O)c3cc(N4CCN(C)CC4)ccc3C)c2)s1 [Example 39, 2-Methyl-5-(4-methylpiperazin-1-yl)-N-[(1R)-1-[3-(5-methyl-1,3,4-thiadiazol-2-yl)phenyl]ethyl]benzamide] | 90.5% | < 2 µM |  | 
Cc1ccc(N2CCN(C)CC2)nc1C(=O)N[C@H](C)c1cccc2ccccc12 [Example 15, 3-Methyl-6-(4-methylpiperazin-1-yl)-N-[(1R)-1-(1-naphthyl)ethyl]pyridine-2-carboxamide hydrochloride] | 76.1% | < 10 µM |  | 
Cc1ccc(N2CCN(C)CC2)cc1C(=O)N[C@H](C)c1cccc(C#CCO)c1 [Example 315, N-[(1R)-1-[3-(3-Hydroxyprop-1-ynyl)phenyl]ethyl]-2-methyl-5-(4-methylpiperazin-1-yl)benzamide] | 122.7% | < 5 µM |  | 
Cc1ccc(N2CCN(C)CC2)cc1C(=O)N[C@H](C)c1cccc(F)c1 [Example 25, N-[(1R)-1-(3-Fluorophenyl)ethyl]-2-methyl-5-(4-methylpiperazin-1-yl)benzamide] | 95.2% | < 20 µM |  | 
Cc1ccc(N2CCN(C)CC2)cc1C(=O)N[C@H](C)c1ccc(Br)cc1 [Example 24, N-[(1R)-1-(4-Bromophenyl)ethyl]-2-methyl-5-(4-methylpiperazin-1-yl)benzamide] | 70.7% | < 10 µM |  | 
Cc1ccc(N2CCN(C)CC2)cc1C(=O)N[C@H](C)c1cccc(-c2cccc(C(=O)NCCO)c2)c1 [Example 97, N-[(1R)-1-[3-[3-(2-Hydroxyethylcarbamoyl)phenyl]phenyl]ethyl]-2-methyl-5-(4-methylpiperazin-1-yl)benzamide] | 72.1% | < 2 µM |  | 
Cc1ccc(N2CCN(C)CC2)cc1C(=O)N[C@H](C)c1cccc(-c2ccc(N)nc2)c1 [Example 67, N-[(1R)-1-[3-(6-Amino-3-pyridyl)phenyl]ethyl]-2-methyl-5-(4-methylpiperazin-1-yl)benzamide] | 58.7% | < 2 µM |  | 
COc1ccc([C@@H](C)NC(=O)c2cc(N3CCN(C)CC3)ccc2C)cc1OCCN [Example 295, N-[(1R)-1-[3-(2-Aminoethoxy)-4-methoxy-phenyl]ethyl]-2-methyl-5-(4-methylpiperazin-1-yl)benzamide Dihydrochloride Salt] | 107.9% | < 10 µM |  | 
COc1cc(OC)cc([C@@H](C)NC(=O)c2cc(N3CCN(C)CC3)ccc2C)c1 [Example 31, N-[(1R)-1-(3,5-Dimethoxyphenyl)ethyl]-2-methyl-5-(4-methylpiperazin-1-yl)benzamide] | 90.6% | < 5 µM |  | 
COc1cc(-c2cnn(C)c2)cc([C@@H](C)NC(=O)c2cc(N3CC4CNCC4C3)ccc2C)c1 (stereo partly drawn) [Example 262, 5-(2,3,3a,4,6,6a-Hexahydro-1H-pyrrolo[3,4-c]pyrrol-5-yl)-N-[(1R)-1-[3-methoxy-5-(1-methylpyrazol-4-yl)phenyl]ethyl]-2-methyl-benzamide] | 42.4% | < 2 µM |  | 
Cc1ccc(N2CCN(C)CC2)cc1C(=O)N[C@H](C)c1cccc(-c2cccc(C(=O)NC[C@H](O)CO)c2)c1 [Example 89] | 96.2% | < 5 µM |  | 
COc1cc(Br)cc([C@@H](C)NC(=O)c2cc(N3CCN(C)CC3)ccc2C)c1 [Example 186, N-[(1R)-1-(3-Bromo-5-methoxy-phenyl)ethyl]-2-methyl-5-(4-methylpiperazin-1-yl)benzamide] | 1.0% | < 2 µM |  | 
